# Laboratory results taken from patent US12312330B2, “1-((S)-1-(3-chloro-5-fluoro-2-((4-(1h-pyrazol-1-yl)-2-methylquinolin-8-yloxy)methyl)phenyl)ethyl)-imidazolidine-2,4-dione derivatives and related compounds as bradykinin (BK) B2 receptor antagonist for treating skin diseases” (Pharvaris GmbH, priority 2019, dated 2025).
# pIC50: −log10 of the molar value.
# Biological target: T1, human bradykinin B2 receptor (hB2R) (Homo sapiens, UniProt P30411)
# T1 sequence (P30411 1-391): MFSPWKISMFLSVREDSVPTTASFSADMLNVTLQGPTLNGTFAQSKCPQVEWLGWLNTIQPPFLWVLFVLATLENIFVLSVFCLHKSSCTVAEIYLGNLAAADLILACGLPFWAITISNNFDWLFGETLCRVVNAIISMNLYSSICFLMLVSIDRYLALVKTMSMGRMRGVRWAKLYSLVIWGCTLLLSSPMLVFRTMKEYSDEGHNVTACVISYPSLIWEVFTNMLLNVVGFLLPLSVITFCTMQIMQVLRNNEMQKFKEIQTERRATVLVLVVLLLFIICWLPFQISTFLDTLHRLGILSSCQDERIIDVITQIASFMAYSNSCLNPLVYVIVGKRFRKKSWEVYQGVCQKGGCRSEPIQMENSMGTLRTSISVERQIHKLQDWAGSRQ
# Assay: human bradykinin B2 receptor calcium mobilization (hB2R-CaM) assay
# Assay type: cell-based
# Settings: antagonism of bradykinin (EC80) induced calcium mobilization, B2 Bradykinin Receptor Stable Cell Line HTS041C, 25 min pre-incubation; read-out: IC50-value towards human bradykinin B2 receptor (hB2R)
# Description: The following cell-based human bradykinin B2 receptor calcium mobilization (hB2R-CaM) assay was used to determine the antagonistic activity of compounds selected from the example compounds Nos. 1 to 107 towards human bradykinin B2 receptor (hB2R). The assay is defined herein as a standard in vitro B2 receptor activity assay, which can be used to determine IC50 values of the compounds according to the present invention, e. g. the compounds shown in Examples 1-13.
# The antagonistic activity of compounds according to the present invention was investigated with the hB2R-CaM assay using the B2 Bradykinin Receptor Stable Cell Line HTS041C (Eurofins, St. Charles MO) and the FLIPR Calcium 6 Assay Kit (Molecular Devices, Wokingham, UK) according to the instructions of the providers. CaM assay measurements were performed with a Flexstation 3 System (Molecular Devices) which allows the precise addition of compounds (B2R antagonists) and bradykinin (B2R agonist) to the cells and adjacent continuous recording of the time-dependent CaM assay signals.
# HTS041C cells were cultured in high glucose DMEM cell culture medium (Lonza) supplemented with 10% heat-inactivated FBS (PAN Biotech), 10 mM HEPES, Penicillin/Streptomycin (200 U/mL, 200 μg/mL), lx non-essential amino acids (Lonza), and 250 μg/mL G418 (Invivogen) in cell incubator at 37° C. in a 5% CO2 atmosphere. One day before the CaM assay experiments cells were seeded in 200 μL DMEM cell culture medium with reduced FBS (5%) and without G418 on clear bottom black 96 well plates (ThermoFisher #165305). Cell starvation was carried out by incubation (37° C., 5% CO2) of 70.000 cells/well for 24 h to 28 h. Immediately prior calcium dye-loading the medium was carefully aspirated and cells were washed with Hank's balanced salt solution (HBSS, Gibco) containing Ca^2+, Mg^2+ and 20 mM HEPES, adjusted to pH 7.4 (HBSS+).
# For calcium dye-loading one FLIPR 6 assay aliquot was dissolved in 20 mL HBSS+. 150 μL of the dye loading solution was added to cell plate and incubated for 120 min at 37° C. and 5% CO2. After dye loading the cell plate was immediately transferred to the pre-warmed (37° C.) Flexstation 3 System for CaM assaying.
# Freshly prepared compound (B2 receptor antagonists) dilution series (8 pt, n=2) and bradykinin (B2 receptor agonist) solution in non-binding plates (Costar) were transferred to the Flexstation System (source plate) shortly before starting the experiment. Bradykinin was added in EC80 concentration determined in n>3 preliminary experiments with 8 pt concentration response curves (n=8)). CaM assay was executed by Flexstation 3 System starting with recording of calcium-sensitive dye fluorescence in bottom-read Flex modus with ex/em=485 nm/525 nm, cut off(em)=515 nm After 20 s, 50 μL of 4-fold concentrated compound dilutions were added to the cells resulting in a final DMSO (Sigma) concentration of 0.1% in the cell plate. CaM signals were monitored for 80 s after additions for detection of potential agonistic activities. Prior to bradykinin stimulus compound- and vehicle-treated cells were incubated for 25 min at 37° C. within the Flexstation System. Then 50 μL of a 5-fold concentrated bradykinin solution (HBSS+, 0.1% DMSO) was added to trigger CaM signals (Read out: Max-Min values) which were measured for 80 s post bradykinin stimulus.
# IC50 determinations were performed by 4 parameter logistic model curve fitting of the 8 pt (n=2) compound concentration response curves using XLFIT (IDBS) software.
row,Compound,pIC50
1,Cc1cc(-n2cc(F)cn2)c2cccc(OCc3c(Cl)cc(F)cc3[C@H](C)N3CCC[C@@H](O)C3=O)c2n1 [compound 84],7.00 to 7.96
2,Cc1cc(-c2ncnn2C)c2cccc(OCc3c(Cl)cc(F)cc3[C@H](C)N3CCC[C@H](O)C3=O)c2n1 [compound 85],6.30 to 7.00
3,Cc1cc(-n2cc(F)cn2)c2cccc(OCc3c(Cl)cc(F)cc3[C@H](C)N3CC[C@@H](OC(F)F)C3=O)c2n1 [compound 89],7.00 to 7.96
4,Cc1cc(-n2cc(F)cn2)c2cccc(OCc3c(Cl)cc(F)cc3[C@H](C)N3C(=O)[C@H](C)NC(=O)[C@@H]3C)c2n1 [compound 90],7.00 to 7.96
5,Cc1cc(-n2cc(F)cn2)c2cccc(OCc3c(Cl)cc(F)cc3[C@H](C)N3C[C@H](O)CC3=O)c2n1 [compound 95],7.00 to 7.96
6,Cc1cc(-c2ncnn2C)c2cccc(OCc3c(Cl)cc(F)cc3[C@H](C)N3C[C@H](O)CC3=O)c2n1 [compound 96],7.00 to 7.96
7,Cc1cc(-n2cc(F)cn2)c2cccc(OCc3c(Cl)cc(F)cc3[C@H](C)N3C(=O)[C@@H](C)NC(=O)[C@@H]3C)c2n1 [compound 99],7.00 to 7.96
8,Cc1cc(-n2cc(F)cn2)c2cccc(OCc3c(Cl)cc(F)cc3[C@H](C)N3CCNC(C)(C)C3=O)c2n1 [compound 100],7.00 to 7.96
9,Cc1cc(-c2ncnn2C)c2cccc(OCc3c(Cl)cc(F)cc3[C@H](C)N3CC(=O)NC(C)(C)C3=O)c2n1 [compound 101],7.00 to 7.96
10,Cc1cc(-n2cc(F)cn2)c2cccc(OCc3c(Cl)cc(F)cc3[C@H](C)N3CC(=O)NC(C)(C)C3=O)c2n1 [compound 102],7.00 to 7.96
11,Cc1cc(-n2cc(F)cn2)c2cccc(OCc3c(Cl)cc(F)cc3[C@H](C)N3CC(=O)N(C)[C@H](C)C3=O)c2n1 [compound 103],7.00 to 7.96
12,Cc1cc(-c2ncnn2C)c2cccc(OCc3c(Cl)cc(F)cc3[C@H](C)N3C(=O)[C@@H](C)NC(=O)[C@H]3C)c2n1 [compound 105],7.00 to 7.96
13,Cc1cc(-c2ncnn2C)c2cccc(OCc3c(Cl)cc(F)cc3[C@H](C)N3C(=O)[C@H](C)NC(=O)[C@H]3C)c2n1 [compound 106],7.00 to 7.96
14,CCN1C(=O)CN([C@@H](C)c2cc(F)cc(Cl)c2COc2cccc3c(-n4cc(F)cn4)cc(C)nc23)C1=O [compound 107],7.00 to 7.96

# Second part, the compound after the results:
row,pIC50,Compound
1,≥ 8.00,CCN1CCN([C@@H](C)c2cc(F)cc(Cl)c2COc2cccc3c(-n4cc(F)cn4)cc(C)nc23)C(=O)C1 [compound 81]
2,≥ 8.00,Cc1cc(-n2cc(F)cn2)c2cccc(OCc3c(Cl)cc(F)cc3[C@H](C)N3C[C@H](O)CCC3=O)c2n1 [compound 82]
3,7.00 to 7.96,Cc1cc(-c2ncnn2C)c2cccc(OCc3c(Cl)cc(F)cc3[C@H](C)N3C[C@H](O)CCC3=O)c2n1 [compound 83]
4,≥ 8.00,Cc1cc(-n2cc(F)cn2)c2cccc(OCc3c(Cl)cc(F)cc3[C@H](C)N3C[C@H](C)NC(=O)C3=O)c2n1 [compound 86]
5,≥ 8.00,Cc1cc(-n2cc(F)cn2)c2cccc(OCc3c(Cl)cc(F)cc3[C@H](C)N3CCN(C)C(=O)C3=O)c2n1 [compound 87]
6,≥ 8.00,Cc1cc(-c2ncnn2C)c2cccc(OCc3c(Cl)cc(F)cc3[C@H](C)N3CC[C@@H](OC(F)F)C3=O)c2n1 [compound 88]
7,≥ 8.00,Cc1cc(-c2ncnn2C)c2cccc(OCc3c(Cl)cc(F)cc3[C@H](C)N3CC[C@H](F)C3=O)c2n1 [compound 91]
8,≥ 8.00,Cc1cc(-n2cc(F)cn2)c2cccc(OCc3c(Cl)cc(F)cc3[C@H](C)N3CCN(C)[C@@H](C)C3=O)c2n1 [compound 92]
9,≥ 8.00,Cc1cc(-n2cc(F)cn2)c2cccc(OCc3c(Cl)cc(F)cc3[C@H](C)N3CCN(C)[C@H](C)C3=O)c2n1 [compound 93]
10,≥ 8.00,Cc1cc(-n2cc(F)cn2)c2cccc(OCc3c(Cl)cc(F)cc3[C@H](C)N3CCN[C@@H](C)C3=O)c2n1 [compound 94]
11,≥ 8.00,Cc1cc(-n2cc(F)cn2)c2cccc(OCc3c(Cl)cc(F)cc3[C@H](C)N3C[C@@H](C)NC(=O)C3=O)c2n1 [compound 97]
12,≥ 8.00,Cc1cc(-c2ncnn2C)c2cccc(OCc3c(Cl)cc(F)cc3[C@H](C)N3C[C@@H](C)NC(=O)C3=O)c2n1 [compound 98]
13,≥ 8.00,Cc1cc(-c2ncnn2C)c2cccc(OCc3c(Cl)cc(F)cc3[C@H](C)N3CC(=O)N(C)[C@H](C)C3=O)c2n1 [compound 104]
